Test results as given in publication PMC7385413 (Frontiers in Neuroscience, 2020).
Several values for one entry are separate records, joined by “and”; a condition that tells them apart may be missing. Identical values can stand only once. Like-named read-outs stand apart in the source and are kept apart here.

Legend:
B6-SJL mice [1] = type: in vivo
C57Bl/6J mice [2] = system: C57Bl/6J mice
hKOPr [3] = target: T1, hKOPr (Homo sapiens, UniProt P41145); set-up: host or cells: CHO; details: cited from earlier work
Sprague–Dawley rats = system: Sprague–Dawley rats; set-up: method as in Riley et al., 2014; Mathew, 2019; details: 16-Bromo SalA 1 mg/kg; 16-Ethynyl SalA 0.3–2 mg/kg; ref Riley et al., 2014; Mathew, 2019; cited from earlier work
hKOPr [4] = assay: Bias factor, G-protein (cAMP) vs β-arrestin2, U50,488 as reference ligand; details: for Signaling bias in words: bias calculation relative to U50,488; for Bias factor: relative to U50,488, 1 balanced, >1 G-protein biased, <1 β-arrestin2 biased
B6-SJL mice [5] = assay: Intraplantar 2% formaldehyde model, i.p. treatment; type: in vivo; details: for Time of significant reduction of pain-related behavioral score: vs vehicle/formaldehyde; for Area under the curve, phase I and phase II pain-related behavior: phase I 0–15 min, phase II 20–60 min
Description: The Intraplantar 2% formaldehyde model was carried out as previously described ([Paton et al., 2017]; [Sherwood et al., 2017]). The custom-made chamber (27.5 × 18.5 cm) sat on a glass surface with a 45° angle mirror underneath to capture the behaviors via a video camera. The mice were habituated to the test enclosure for 15 min before testing. The mice were given KOPr agonist or vehicle treatment via i.p. injection 5 min prior to the administration of 20 μL of formaldehyde (2% in PBS) or PBS alone via intraplantar (i.pl.) injection. The animals were recorded for 60 min. The methods of [Dubuisson and Dennis (1977)] were used to assess the pain-like behavior using a weight-bearing score. […] Scores were assessed every 5 s and averaged for every 5 min time period. For the area under the curve analysis, the two phases were separated out as follows: 0–15 min phase one nociceptive pain-related behavior; and 20–60 min phase two inflammatory pain-related behavior.

B6-SJL mice [6] = assay: Cumulative dose-response warm water tail-withdrawal assay; type: in vivo; details: cumulative s.c. doses; for ED50: Mus musculus, sc, 0.5 h, 50°C, latency 30 min post-injection
Description: (§1) On the 2 days prior to the test day, mice were restrained in transparent plastic tube restrainers (internal diameter 24 mm) for 5 min daily, to reduce restraint stress. Tail-withdrawal latencies were measured by immersing one-third of the distal portion of the tail in a warm water bath (50 ± 0.5°C) and the time to show the withdrawal response recorded. A maximum tail immersion cut-off of 10 s was used to avoid tissue damage and allow for repeated exposure to the thermal stimulus. On the day of the experiment, the baseline latency for each animal was measured by averaging three predrug tail-withdrawal latencies, with successive measurements taken at least 5 min apart. Following the experimental procedure, the percentage maximum possible effect (%MPE) was calculated for each animal at each time point by using the following formula:
(§2) %MPE=(testlatency-baselinelatency/10-baselinelatency)× 100
The cumulative dose-response effects were evaluated using a within animal design, as previously described ([Bohn et al., 2000]; [Paton et al., 2017]; [Sherwood et al., 2017]). Briefly, mice were given s.c. injections at increasing concentrations to create cumulative doses in a volume of 5 μL/g of weight into the scruff of the neck, the left flank and the right flank in sequence to avoid continuous injections into the same area. At 30 min post-injection, the tail-withdrawal latency was measured and the next cumulative dose administered immediately after. […] Non-linear regression analysis was used to determine potency [median effective dose (ED50)] and efficacy calculated by normalizing data to the prototype KOPr agonist U50,488 [maximum dose achieved (Emax)].

B6-SJL mice [7] = assay: Warm water tail-withdrawal assay, time course (duration of action); type: in vivo; details: 50°C, vs vehicle
Description: as §1, §2
To measure the duration of action, the tail-withdrawal latencies were measured over a time-course as previously described ([Simonson et al., 2015]; [Paton et al., 2017]). Following the baseline latency measurements, mice were given an i.p. injection of either KOPr agonist or vehicle and the latency to tail-withdrawal behavior determined at 5, 10, 15, 30, 45, 60, 90, and 120 min for each animal in a repeated measures design.

hKOPr [8] = target: T1, hKOPr; assay: Inhibition of forskolin-induced cAMP accumulation (HitHunter) in CHO cells expressing hKOPr; type: cell-based; set-up: host or cells: CHO
hKOPr [9] = target: T1, hKOPr; assay: β-arrestin2 recruitment (PathHunter) in U2OS cells expressing β-arrestin2 and hKOPr; type: cell-based; set-up: host or cells: U2OS
rats [10] = system: rats; set-up: method as in Riley et al., 2014; details: ref Riley et al., 2014; cited from earlier work
C57Bl/6J mice [11] = system: C57Bl/6J mice; remark: listed apart in the source
B6-SJL mice [12] = system: B6-SJL mice
B6-SJL mice [13] = type: in vivo; remark: listed apart in the source
hKOPr [14] = details: read-out: EC50 [35S]GTP-γ-S; cited from earlier work
B6-SJL mice [15] = details: ref White et al. (2015), cited from earlier work
rats [16] = details: ref Ewald et al., 2017; cited from earlier work
B6-SJL mice [17] = details: cited from earlier work
B6-SJL mice [18] = system: B6-SJL mice; set-up: method as in McCurdy et al. (2006); details: 2–4 mg/kg, 52°C, male Swiss mice; ref McCurdy et al. (2006); cited from earlier work
male NIH Swiss mice = details: mouse, in vivo; cited from earlier work
[19] = SalA 2 mg/kg i.p., analogs 1–2 mg/kg i.p.

| Compound | Duration of action, hot-plate (B6-SJL mice [1]; mouse, in vivo) | Number of head dips vs vehicle (C57Bl/6J mice [2]; mouse, in vivo) | Open arm entries vs vehicle (C57Bl/6J mice [2]; mouse, in vivo) | Time in open area vs vehicle (C57Bl/6J mice [2]; mouse, in vivo) | Effect on spontaneous locomotor activity (Sprague–Dawley rats) | Signaling bias in words (hKOPr [4]) | Bias factor (hKOPr [4]) | Time of significant reduction of pain-related behavioral score (B6-SJL mice [5]; 1 mg/kg i.p.) | Area under the curve, phase I and phase II pain-related behavior (B6-SJL mice [5]; 1 mg/kg i.p.) | Area under the curve, phase I and phase II pain-related behavior (B6-SJL mice [5]; 2 mg/kg i.p.) | ED50 (B6-SJL mice [6]) | Time of significant antinociceptive effect, tail-withdrawal (B6-SJL mice [7]; 1 mg/kg i.p.) | Inhibition of forskolin-induced cAMP accumulation Emax ± SEM (hKOPr [8]) | Drug-seeking in cocaine prime-induced reinstatement (rats [10]) | Marbles buried vs vehicle (C57Bl/6J mice [11]; mouse, in vivo) | EC50 (hKOPr [14]) | also measured |
| --- | --- | --- | --- | --- | --- | --- | --- | --- | --- | --- | --- | --- | --- | --- | --- | --- | --- |
| C#Cc1occc1[C@@H]1C[C@]2(C)[C@H]3C(=O)[C@@H](OC(C)=O)C[C@@H](C(=O)OC)[C@]3(C)CC[C@H]2C(=O)O1 [16-Ethynyl SalA, 16-Ethynyl Salvinorin A] | 30 min | reduced | reduced | reduced | did not have an effect | balanced agonist | 1.0 | 25 to 35 min | not 1 mg/kg | reduced the pain-related behavioral scores | 1.54 mg/kg | 10 to 15 min | 101 ± 1.79 | attenuated drug-seeking | did not alter the number of marbles buried | – | Antinociceptive effect compared at the 30 min time point, hot-plate (B6-SJL mice [1]; mouse, in vivo): greater antinociceptive effect than both SalA and 16-Bromo SalA; Fold increase in potency at KOPr compared to 16-Bromo SalA (hKOPr [3]): 2 fold; Effect of nor-BNI pre-treatment on the AUC reduction (B6-SJL mice [5]; 2 mg/kg i.p., nor-BNI s.c. 24 h prior): nor-BNI significantly reversed the effect; Emax tail-withdrawal (B6-SJL mice [6]; normalized to U50,488): 171.0 ± 21.5%; Time of significant antinociceptive effect, tail-withdrawal (B6-SJL mice [7]; 2 mg/kg i.p.): 5 to 60 min; EC50 (hKOPr [8]; HitHunter, CHO-hKOPr): 0.011 nM; EC50 (hKOPr [9]): 7.35 nM; Time of decreased latency to fall (B6-SJL mice [12]; B6-SJL, mouse, in vivo): 15 and 30; Area under the curve, phase I and II pain-related behavior (B6-SJL mice [13]; mouse, in vivo): reduced both phases of pain-related behavior |
| COC(=O)[C@@H]1C[C@H](OC(C)=O)C(=O)[C@H]2[C@@]1(C)CC[C@H]1C(=O)O[C@H](c3ccoc3Br)C[C@]21C [16-Bromo SalA, 16-Bromo Salvinorin A] | […] | did not have any effect | did not have any effect | did not have any effect | did not have an effect | G-protein biased | 7.7 G | […] | did not show a significant reduction | did not show a significant reduction | 2.06 mg/kg | […] | 98.8 ± 1.84 | attenuated drug-seeking | did not alter the number of marbles buried | […] | Time of significant reduction of pain-related behavioral score (B6-SJL mice [5]; 2 mg/kg i.p.): […]; Time of sedative effects (decreased latency to fall) (B6-SJL mice [12]; B6-SJL, mouse, in vivo): […] |
| COC(=O)[C@@H]1C[C@H](OC(C)=O)C(=O)[C@H]2[C@@]1(C)CC[C@H]1C(=O)O[C@H](c3ccoc3)C[C@]21C [SalA, Salvinorin A, reference compound] | – | – | – | – | – | – | – | – | – | – | – | – | – | – | – | 2.1 ± 0.6 nM | Duration of action, hot-plate (B6-SJL mice [1]; 2 mg/kg i.p., 50°C hot-plate): 30 min; Number of head dips vs vehicle (C57Bl/6J mice [2]; [19]): reduced; Open arm entries vs vehicle (C57Bl/6J mice [2]; [19]): reduced; Time in open area vs vehicle (C57Bl/6J mice [2]; SalA 2 mg/kg i.p., analogs 1–2 mg/kg i.p., 10 min after injection, 5 min test): reduced; Duration of motor incoordination, rotarod (B6-SJL mice [15]; 3 and 10 mg/kg, female and male C57BL/6J mice): up to 30 min; Anxiogenic effects in the elevated plus maze (rats [16]): has anxiogenic effects; Duration of action, tail-withdrawal (B6-SJL mice [17]; 2–4 mg/kg, male Swiss mice, ref McCurdy et al. (2006)): 20 min; Duration of antinociceptive action, tail-withdrawal (B6-SJL mice [17]; authors' model, ref Paton et al., 2017): 30 min; Marbles buried vs vehicle (C57Bl/6J mice [11]; SalA 2 mg/kg i.p., analogs 1–2 mg/kg i.p., 30 min): increase in the percentage of marble buried; Duration of action, hot-plate (B6-SJL mice [18]): 10 min; Time of significant motor incoordination (decreased latency to fall) (B6-SJL mice [12]; 2 mg/kg i.p., accelerating rotarod 4 to 40 rpm): 15 to 30 min; Area under the curve, phase I and II pain-related behavior (B6-SJL mice [13]; 2 mg/kg i.pl.): reduced both phases of pain-related behavior; Duration of disrupted climbing behavior (male NIH Swiss mice): 5 min |
| COC(=O)[C@@H]1C[C@H](OC(=O)CSC#N)C(=O)[C@H]2[C@@]1(C)CC[C@H]1C(=O)O[C@H](c3ccoc3)C[C@]21C [RB-64] | – | – | – | – | – | – | – | – | – | – | – | – | – | – | – | – | Motor deficits, rotarod (B6-SJL mice [15]; C57BL/6J mice): did not cause any motor deficits |
